Assay results from the CheMixHub viscosity set.

Assay: xn = mol fraction of the nth substance listed

CNC=O + CC(=O)O
viscosity [mPa·s], 100 kPa
Conditions	x1 = 0.1097	x1 = 0.183	x1 = 0.2628	x1 = 0.3502	x1 = 0.4802	x1 = 0.5897	x1 = 0.6693	x1 = 0.7549	x1 = 0.8961
303.15 K	1.044	1.086	1.132	1.183	1.259	1.324	1.372	1.426	1.517
308.15 K	0.9723	1.011	1.054	1.1	1.169	1.228	1.272	1.32	1.402
313.15 K	0.9175	0.9534	0.992	1.033	1.095	1.148	1.187	1.229	1.301
318.15 K	0.8728	0.9059	0.9409	0.978	1.033	1.08	1.114	1.151	1.213

C[N+]1(CC2CO2)CCCC1=O.[Cl-] (centres undefined) + CC(=O)O
viscosity [mPa·s], 101 kPa
Conditions	293.15 K	298.15 K	303.15 K	308.15 K	313.15 K
x1 = 0.0373	1.592	1.448	1.322	1.213	1.115
x1 = 0.0644	1.83	1.652	1.5	1.371	1.256
x1 = 0.1087	2.234	2	1.802	1.632	1.489
x1 = 0.2041	2.728	2.425	2.172	1.959	1.776
x1 = 0.3022	2.803	2.492	2.235	2.018	1.831
x1 = 0.4053	2.587	2.314	2.087	1.892	1.723
x1 = 0.5054	2.324	2.095	1.9	1.731	1.586
x1 = 0.605	2.107	1.908	1.738	1.591	1.465
x1 = 0.7073	1.919	1.746	1.597	1.469	1.356
x1 = 0.8065	1.817	1.657	1.521	1.402	1.297
x1 = 0.9047	1.752	1.602	1.473	1.36	1.261

OC[C@@H](O)[C@@H](O)[C@H](O)[C@@H](O)CO + CC(=O)[O-].CC[n+]1ccn(C)c1
Conditions	viscosity [mPa·s]
313.15 K, 100 kPa, x1 = 0.5	572.5

CNC=O + CC(=O)c1ccccc1
viscosity [mPa·s], 101 kPa
Conditions	x1 = 0.0867	x1 = 0.176	x1 = 0.268	x1 = 0.3629	x1 = 0.4607	x1 = 0.5617	x1 = 0.6659	x1 = 0.7736	x1 = 0.8849
303.15 K	1.522	1.532	1.541	1.549	1.556	1.564	1.571	1.578	1.583
308.15 K	1.423	1.43	1.436	1.442	1.447	1.452	1.456	1.46	1.462
313.15 K	1.279	1.289	1.299	1.307	1.316	1.325	1.333	1.34	1.347
318.15 K	1.133	1.148	1.162	1.176	1.19	1.204	1.218	1.231	1.243

CC(C)OCCO + CC(C)O
298.15 K, 101.33 kPa
Conditions	viscosity [mPa·s]
x1 = 0.0272	2.051
x1 = 0.0618	2.009
x1 = 0.0768	1.995
x1 = 0.092	1.986
x1 = 0.1373	1.959
x1 = 0.1766	1.941
x1 = 0.2006	1.929
x1 = 0.2467	1.914
x1 = 0.2976	1.9
x1 = 0.3502	1.899
x1 = 0.3949	1.902
x1 = 0.4259	1.903
x1 = 0.4507	1.908
x1 = 0.5015	1.918
x1 = 0.5529	1.93
x1 = 0.6181	1.948
x1 = 0.6764	1.971
x1 = 0.73	1.991
x1 = 0.7886	2.014
x1 = 0.8718	2.049
x1 = 0.9241	2.064
x1 = 0.9782	2.083

COC(=O)c1ccccc1 + CC(C)O
viscosity [mPa·s], 101 kPa
Conditions	x1 = 0.0634	x1 = 0.1321	x1 = 0.2069	x1 = 0.2887	x1 = 0.3784	x1 = 0.4773	x1 = 0.5868	x1 = 0.7089	x1 = 0.8456
303.15 K	1.655	1.656	1.658	1.659	1.661	1.663	1.664	1.666	1.668
308.15 K	1.495	1.495	1.496	1.496	1.497	1.498	1.498	1.499	1.5
313.15 K	1.323	1.326	1.33	1.335	1.339	1.344	1.35	1.356	1.363
318.15 K	1.189	1.196	1.204	1.212	1.221	1.231	1.242	1.254	1.267
323.15 K	1.074	1.085	1.097	1.11	1.123	1.14	1.157	1.177	1.198

CCCCCCCCN(CCCCCCCC)CCCCCCCC + CC(CC(C)(C)C)CC(C)(C)C
298.15 K, 101.33 kPa
Conditions	viscosity [mPa·s]
x1 = 0.052	1.424
x1 = 0.11	1.675
x1 = 0.173	1.982
x1 = 0.527	4.26

CNC=O + CC(O)CO
viscosity [mPa·s], 101 kPa
Conditions	x1 = 0.0968	x1 = 0.1216	x1 = 0.2366	x1 = 0.347	x1 = 0.4526	x1 = 0.5534	x1 = 0.6498	x1 = 0.7432	x1 = 0.832	x1 = 0.917
293.15 K	39.02	36.25	22.68	14.7	9.934	6.941	5.057	3.792	2.933	2.349
303.15 K	22.78	21.44	14.24	9.752	6.915	5.053	3.822	2.965	2.363	1.935
313.15 K	14.24	13.56	9.479	6.811	5.034	3.819	2.986	2.381	1.949	1.631
323.15 K	9.382	9.048	6.609	4.951	3.793	2.97	2.388	1.957	1.635	1.397

CNC=O + CCC(=O)O
viscosity [mPa·s], 100 kPa
Conditions	x1 = 0.1115	x1 = 0.1858	x1 = 0.2665	x1 = 0.3545	x1 = 0.4849	x1 = 0.5942	x1 = 0.6734	x1 = 0.7583	x1 = 0.8978
303.15 K	1.025	1.069	1.116	1.169	1.248	1.315	1.365	1.42	1.514
308.15 K	0.9555	0.9958	1.039	1.087	1.159	1.22	1.265	1.315	1.399
313.15 K	0.8989	0.9358	0.9757	1.019	1.083	1.138	1.179	1.223	1.298
318.15 K	0.8503	0.8846	0.9214	0.9605	1.019	1.068	1.104	1.143	1.209

C[N+]1(CC2CO2)CCCC1=O.[Cl-] (centres undefined) + CCC(=O)O
viscosity [mPa·s], 101 kPa
Conditions	293.15 K	298.15 K	303.15 K	308.15 K	313.15 K
x1 = 0.0325	1.305	1.209	1.12	1.041	0.971
x1 = 0.0638	1.577	1.45	1.335	1.233	1.144
x1 = 0.1089	1.836	1.673	1.533	1.41	1.301
x1 = 0.205	2.333	2.104	1.909	1.738	1.592
x1 = 0.3036	2.544	2.285	2.064	1.876	1.712
x1 = 0.4076	2.537	2.278	2.059	1.87	1.707
x1 = 0.5049	2.288	2.069	1.882	1.718	1.578
x1 = 0.6079	2.088	1.895	1.729	1.586	1.462
x1 = 0.7037	1.935	1.763	1.613	1.485	1.372
x1 = 0.8065	1.808	1.65	1.516	1.399	1.296
x1 = 0.9028	1.643	1.507	1.39	1.286	1.194

CCCCOCCO + CCC(C)=O
298.15 K, 101 kPa
Conditions	viscosity [mPa·s]
x2 = 0.154	2.106
x2 = 0.2906	1.609
x2 = 0.4126	1.234
x2 = 0.5221	0.939
x2 = 0.6211	0.727
x2 = 0.7108	0.607
x2 = 0.7927	0.519
x2 = 0.8676	0.466
x2 = 0.9365	0.416
